Data on three compounds can be found in patent publication US6858648B2, “Laetispicine and laetispicine analogues, methods of use and preparation” (Fudan University, priority 2002, dated 2005).

Test [1] concerns mouse. The test can be described thus: Mouse acetic acid squirming method. It is filed as in vivo. The conditions noted are these: for Squirming X ± SE: dose 20 mg/kg, 1 hour before 0.2 ml 1% acetic acid into abdominal cavity, squirmings counted over 10 minutes, male mice; for inflammation and pain relieving effect compared with aspirin: 20 mg/kg each, mouse acetic acid squirming. An excerpt: The pain and inflammation relieving effect of Laetispicine has been studied by the mouse acetic acid squirming method. In this study, 30 male mice were selected; each of them weighed 20 grams. These mice were divided randomly into 3 groups: Laetispicine group (10 mice), aspirin group (10 mice), and control group (10 mice). Laetispicine of 20 milligram/kilogram body weight in vehicle solution was given to each of the ten mice in Laetispicine group. For a positive control, aspirin of 20 milligram/kilogram body weight in vehicle solution was given to each of the ten mice in aspirin group. Vehicle solution only was given to ten mice in control group (negative control group). One hour later, each mouse was given 0.2 milliliter of 1% acetic acid solution by injection to its abdominal cavity. After the mouse squirmed first time, every squirming of each of the mouse was counted in a period of 10 minutes.

The subject of test [2] is mouse. As to the kind of experiment: Mouse forced swimming experiment. It is filed as in vivo. The conditions noted are these: for Motionless Time (sec.) X ± SE: 1 hour after dosing, recorded over 4 minutes after 2 minutes adaptation, 10 mice per group; for anti-depression effect compared with Fluoxetine (Prozac): mouse forced swimming, relative to Fluoxetine. An excerpt:
Mouse forced swimming experiment is by far the best animal model to screen anti-depression drugs. The experiment is designed to create a despaired situation for a mouse by confining the mouse in a container filled with water. Mouse in water will swim to safety. When the mouse cannot find a way out after it tried in the water in the container, it despaired of swimming. There is psychological difference of different mice in the situation. A calm mouse is still swimming and trying to find a way out of the container, while a despaired mouse swims relatively less (moves less). A depressed mouse despairs easily. The more depressed the mouse, the severer the despair.
In this experiment, sixty mice were divided into 6 groups (10 mice in each group). (Referring to Table 1 and FIG. 2) Each mouse in experiment group 1 (Laetispicine 1) was given Laetispicine 50 milligram/kilogram body weight, each mouse in experiment group 2 (Laetispicine 2) was given Laetispicine 20 milligram/kilogram body weight, each mouse in experiment group 3 (Laetispicine 3) was given Laetispicine 10 milligram/kilogram body weight and each mouse in experiment group 4 (Laetispicine 4) was given Laetispicine 5 milligram/kilogram body weight. Fluoxetine (Prozac) was given 50 milligram/kilogram body weight to each mouse of positive control group (Fluoxetine), and placebo was given to each mouse of negative control group.
After receiving the drugs (or placebo) 1 hour later, mice were put into a glass container with a long and narrow opening. The dimension of the container is 30 cm height, filled with water to 15 cm deep.

`CC(=O)Oc1ccccc1C(=O)O` [Aspirin, reference compound]: in the test with mouse [1], the “Squirming X ± SE” value was 16.8 ± 3.43.

Turning to `CNCCC(Oc1ccc(C(F)(F)F)cc1)c1ccccc1` (stereo not drawn) [Fluoxetine, reference compound], the “Motionless Time (sec.) X ± SE” value with mouse [2] (dose 50 mg/kg) is 113.44 ± 10.10 s.

As to `CC(C)CNC(=O)/C=C/C=C/CCC/C=C/Cc1ccc2c(c1)OCO2` [Laetispicine, N-isobutyl-11-(3,4-methylendioxyphenyl)-2E,4E,9E-undecatrienamide], the “inflammation and pain relieving effect compared with aspirin” value is reported as “equivalent to that of aspirin” in the test on mouse [1] and “equivalent to the effect of Aspirin” in the test with mouse [1] (listed as Lactispicine). Besides, the “Squirming X ± SE” value in the test with mouse [1] is 16.7 ± 4.92. In addition, the “effect on mouse depression (in words)” value with mouse [2] (Table 1 and FIG. 2, 5-50 mg/kg) is “significantly reduced the mouse depression”. Further, the “Motionless Time (sec.) X ± SE” value in the test on mouse [2] (dose 5 mg/kg) was 158.78 ± 5.13 s; with mouse [2] (dose 10 mg/kg), 131.0 ± 8.86 s; in the test with mouse [2] (dose 20 mg/kg), 50.11 ± 12.69 s; with mouse [2] (dose 50 mg/kg), 17.67 ± 5.33 s. In addition, the figures for the “anti-depression effect compared with Fluoxetine (Prozac)” value in the test with mouse [2] and with mouse [2] (listed as Lactispicine) were “five times effective than that of Prozac” and 5 times, respectively.
